From patent US20220204497A1, “NOVEL COMPOUND HAVING ANTICANCER ACTIVITY, AND METHOD FOR PRODUCING SAME” (MEDICINAL BIOCONVERGENCE RESEARCH CENTER, priority 2019, published 2022) come the findings set out here.

The series has as its system A549 cells. In words: Cell viability by MTT method in A549 cells. Further details: concentration or dose not given beside the values. The note with it: 72 hours treatment. It counts as cell-based. A general note: Tetrazolium assays rely on reduction of a dye to a coloured formazan, in cell work by metabolically active cells.
Turning to `Cc1ccc(S(=O)(=O)N[C@@H](CCCCN)C(=O)Nc2ccc(N3CCOCC3)cc2)cc1` [Compound 169, (S)-6-Amino-2-(4-methylphenylsulfonamido)-N-(4-morpholinophenyl)hexanamide], the “Cell Viability (% inhibition) (A549)” value is 3.97 ± ? .91%.

Turning to `COc1cc(OC)cc(C(=O)NCCCC[C@H](NS(=O)(=O)c2ccc(C)cc2)C(=O)Nc2ccc(N3CCOCC3)cc2)c1` [Compound 170, (S)-3,5-Dimethoxy-N-(5-(4-methylphenylsulfonamido)-6-(4-morpholinophenylamino)-6-oxohexyl)benzamide], the “Cell Viability (% inhibition) (A549)” value worked out at 31.41 ± 4.96%.

As for `COc1ccc(CNC(=O)CC[C@H](NS(=O)(=O)c2ccc(C)cc2)C(=O)Nc2ccc(N3CCOCC3)cc2)cc1` [Compound 171, (S)—N^5-(4-Methoxybenzyl)-2-(4-methylphenylsulfonamido)-N^1-(4-morpholinophenyl)pentanediamide], the “Cell Viability (% inhibition) (A549)” value is 40.19 ± 4.29%.

For `Cc1ccc(S(=O)(=O)N[C@@H](CCC(=O)Nc2ccccc2)C(=O)Nc2ccc(N3CCOCC3)cc2)cc1` [Compound 172, (S)-2-(4-Methylphenylsulfonamido)-N^1-(4-morpholinophenyl)-N^5-phenylpentanediamide], the “Cell Viability (% inhibition) (A549)” value was −2.14 ± ? .1%.

`Cc1ccc(S(=O)(=O)N[C@@H](CCC(=O)N2CCOCC2)C(=O)Nc2ccc(N3CCOCC3)cc2)cc1` [Compound 173, (S)-2-(4-Methylphenylsulfonamido)-5-morpholino-N-(4-morpholinophenyl)-5-oxopentanamide]: the “Cell Viability (% inhibition) (A549)” value is on record as 0.1 ± 5.51%.

As to `Cc1ccc(S(=O)(=O)N[C@@H](CCC(=O)Nc2ccc(F)cc2)C(=O)Nc2ccc(N3CCOCC3)cc2)cc1` [Compound 174, (S)—N^5-(4-fluorophenyl)-2-(4-methylphenylsulfonamido)-N^1-(4-morpholinophenyl)pentanediamide], the “Cell Viability (% inhibition) (A549)” value is recorded as 10.8 ± 2.26%.

Consider `Cc1ccc(S(=O)(=O)N[C@@H](CCC(=O)Nc2ccc(C(C)(C)C)cc2)C(=O)Nc2ccc(N3CCOCC3)cc2)cc1` [Compound 175, (S)—N^5-(4-tert-butylphenyl)-2-(4-methylphenylsulfonamido)-N^1-(4-morpholinophenyl)pentanediamide], for which the “Cell Viability (% inhibition) (A549)” value is recorded as 28.4 ± 4.82%.

For `Cc1ccc(S(=O)(=O)N[C@@H](CC(=O)Nc2ccc([N+](=O)[O-])cc2)C(=O)Nc2ccc(N3CCOCC3)cc2)cc1` [Compound 177, (S)-2-(4-Methylphenylsulfonamido)-N^1-(4-morpholinophenyl)-N^4-(4-nitrophenyl)succinamide], the “Cell Viability (% inhibition) (A549)” value stood at 53.91 ± 0.92%.

Consider `O=C([C@H](Cc1c[nH]c2ccccc12)NS(=O)(=O)c1ccc(Br)cc1)n1ccc(-c2ccccc2)n1` [Compound 185, (S)—N-(3-(1H-indol-3-yl)-1-oxo-1-(3-phenyl-1H-pyrazol-1-yl)propan-2-yl)-4-bromobenzenesulfonamide], for which the “Cell Viability (% inhibition) (A549)” value is 13.09 ± 18.13%.

On to `CCCCCCCCCCCC(=O)NNC(=O)[C@H](Cc1c[nH]c2ccccc12)NS(=O)(=O)c1ccc(Br)cc1` [Compound 194, (S)-4-Bromo-N-(1-(2-dodecanoylhydrazinyl)-3-(1H-indol-3-yl)-1-oxopropan-2-yl)benzenesulfonamide], for which the “Cell Viability (% inhibition) (A549)” value came to 86.99 ± 0.6%.

Consider `Cc1ccc(S(=O)(=O)N[C@@H](Cc2c[nH]c3ccccc23)C(=O)NC23CC4CC(CC(C4)C2)C3)cc1` [Compound 204, (S)—N-((3R,5R,7R)-adamantan-1-yl)-3-(1H-indol-3-yl)-2-(4-methylphenylsulfonamido)propanamide], for which the “Cell Viability (% inhibition) (A549)” value was determined as 78.9 ± 2.62%.

For `COc1ccc(CCNC(=O)[C@H](Cc2c[nH]c3ccccc23)NS(=O)(=O)c2ccc(C)cc2)cc1` [Compound 205, (S)-3-(1H-indol-3-yl)-N-(4-methoxyphenethyl)-2-(4-methylphenylsulfonamido)propanamide], the “Cell Viability (% inhibition) (A549)” value is 65.64 ± 5.37%.
